From US20100028395A1, “COMPOSITIONS CONTAINING N-ACETYLGLUCOSAMINE FOR USE IN DERMO-COSMETOLOGY AND AESTHETIC MEDICINE” (ROTTAPHARM S.P.A., priority 2007, published 2010)

Experiments:
[1] = tested on: Human fibroblasts, Detroit 551 ATCC CCL III; assay: Stimulation of elastin synthesis in human fibroblast cultures (Fastin assay); assay type: cell-based; conditions: 24 h
From the text: The scope of the test has been the evaluation and the comparison of the potential stimulation exerted by the test substances on the expression of collagen and elastin in “in vitro” cultures of skin-derived cells, such as fibroblasts. The test in question, even though conducted “in vitro”, can be considered to be predictive of the effects of use of the same substances “in vivo”.
Human fibroblasts, Detroit 551 ATCC CCL III from LGC Promochem (Milan, Italy) have been used.
The substances and concentrations tested have been the same as those already described for stage B of the test on the stimulation of HA expression, i.e.: • CA: 0.66, 1.32, 1.98, 2.64 and 3.3 mg/ml • NAG: 0.5, 1.0, 1.5, 2.0 and 2.5 mg/ml • ASS: 0.16, 0.32, 0.48, 0.64 and 0.80 mg/ml
Cells have been plated out in 96 well plates, 2500 cells/well for 24 hours in cell growth medium ([…], DMEM)+10% foetal calf serum (FCS). Fresh culture medium, enriched with just 5% FCS and containing the substances to be tested, so as to reach the final concentrations desired, has then been added. The samples have been dissolved directly in the culture medium. Each sample has been tested in duplicate and the experiments have been repeated twice. The parameters of interest have been determined after 24 hours on separate plates. Untreated cell cultures have been used as controls.
Elastin has been assayed using a commercially available test (Fastin™, biodye science). The assay is based on the interaction of 5,10,15,20-tetraphenyl-21,23-porphyrin with elastin molecules.
De novo elastin synthesis has been evaluated in the culture medium following treatment with the test substances, following the protocol provided with the test, and by using the calibration curve obtained employing the elastin standard contained in the kit itself.
Evaluation of the effects of the substances tested, at the various concentrations, on fibroblast cultures, has been expressed as the absolute and percent increase or decrease of collagen and elastin expression, with respect to the corresponding control culture, after 24 hours of incubation.
The percentage difference increase or decrease of the effects exerted by CA and NAG, at corresponding concentrations, have then been calculated, with consequent evaluation of their potential statistical significance by means of the test Student “t” test.

[2] = tested on: Human keratinocyte primary culture: HEKA; assay: Stimulation of protein synthesis in human keratinocyte cultures (Lowry method); assay type: cell-based; conditions: keratinocytes
Method: The following have been used: • Human fibroblasts, Detroit 551 ATCC CCL III from LGC Promochem (Milan, Italy); • Human keratinocyte primary culture: HEKA, Cascade Biologics, cat. 005-5C. Test substances and concentrations
The substances and concentrations tested are those reported below (on both fibroblasts and keratinocytes): • CA: 0.13, 0.66, 1.32, and 2.64 mg/ml • NAG: 0.1, 0.5, 1.0, and 2.0 mg/ml
The method is identical to that already described for collagen and elastin with the difference that, following the addition of the test substances into the culture medium, the medium has been substituted daily for three days. Each sample has been tested in duplicate and the experiments have been repeated twice. The parameter of interest, i.e. protein synthesis, has been evaluated at 24, 48 and 72 hours on separate plates. Untreated cell cultures have been used as controls.
Protein has been assayed using the Lowry method [Lowry et al. 1951] consisting of a Biuret reduction reaction envisaging the use of Folin-Ciocalteau reagent as chromophore, with a yellow to blue colour change and spectrophotometric measurement at 750 nm [Creighton et al. 1984; Sengupta et al. 1993].
The protein content of the cultures in question has been obtained from comparison of their optical densities with a titration curve made using albumin as a protein standard.
Evaluation of the effect of the substances tested, at the various concentrations and times, on cultures of both fibroblasts and keratinocytes has been expressed in both absolute terms (expressed protein production in mg/ml) and as percentage increase or decrease with respect to control cultures.
The percentage difference increase or decrease of the effects exerted by CA and NAG, over various days and at the corresponding concentrations, have then been calculated, with evaluation of their potential statistical significance by means of the test Student “t” test.

[3] = tested on: MatTek Human Skin EpiDemFT skin model; conditions: addition of NAG to in vitro skin model; cited from earlier work

In the case of `CC(=O)N[C@@H](C=O)[C@@H](O)[C@H](O)[C@H](O)CO` [NAG, N-acetyl-2-amino-2 deoxyglucose], the “Elastin (μg/ml) (Diff. from baseline)” value ([1]; NAG 0.50 mg/ml) is reported as “+11.21 μg/ml”, the “Elastin (μg/ml) (Mean ± st. dev.)” value ([1]; NAG 0.50 mg/ml) is reported as 16.29 ± 0.83 µg/mL and the “Elastin (%) (Diff. from baseline)” value ([1]; NAG 1.00 mg/ml) is reported as “+278.94%”. For the same molecule, the “Elastin (μg/ml) (Diff. from baseline)” value ([1]; NAG 1.00 mg/ml) was “+14.17 μg/ml”, the “Elastin (μg/ml) (Mean ± st. dev.)” value ([1]; NAG 1.00 mg/ml) was 19.25 ± 0.99 µg/mL and the “Elastin (%) (Diff. from baseline)” value ([1]; NAG 1.50 mg/ml) was “+320.28%”. For the same molecule, the “Elastin (μg/ml) (Diff. from baseline)” value ([1]; NAG 1.50 mg/ml) was “+16.27 μg/ml”, the “Elastin (μg/ml) (Mean ± st. dev.)” value ([1]; NAG 1.50 mg/ml) was 21.35 ± 1.01 µg/mL and the “Elastin (%) (Diff. from baseline)” value ([1]; NAG 2.00 mg/ml) was “+345.27%”. For the same molecule, the “Elastin (μg/ml) (Diff. from baseline)” value ([1]; NAG 2.00 mg/ml) was “+17.54 μg/ml”, the “Elastin (μg/ml) (Mean ± st. dev.)” value ([1]; NAG 2.00 mg/ml) was 22.62 ± 1.03 µg/mL and the “Elastin (μg/ml) (Diff. from baseline)” value ([1]; NAG 2.50 mg/ml) was “+17.22 μg/ml”. For the same molecule, the “Elastin (μg/ml) (Mean ± st. dev.)” value ([1]; NAG 2.50 mg/ml) was 22.30 ± 1.04 µg/mL, the “Expr. prot. from NAG % incr. over baseline” value ([2]; NAG 0.10 mg/ml, 24 hours) was −34.7% and the “Expr. prot. from NAG (mg/ml) - Mean +/− st. dev.” value (“Expr. prot. from NAG (mg/ml)” below) ([2]; NAG 0.10 mg/ml, 24 hours) was 0.16 ± 0.037 mg/mL. For the same molecule, the “Expr. prot. from NAG (mg/ml)” value ([2]; NAG 0.10 mg/ml, 48 hours) was 0.42 ± 0.15 mg/mL, the “Expr. prot. from NAG % incr. over baseline” value ([2]; NAG 0.10 mg/ml, 72 hours) was “+15.5%” and the “Expr. prot. from NAG (mg/ml)” value ([2]; NAG 0.10 mg/ml, 72 hours) was 0.67 ± 0.09 mg/mL. The “Expr. prot. from NAG % incr. over baseline” value ([2]; NAG 0.50 mg/ml, 24 hours) was −10.2%, the “Expr. prot. from NAG (mg/ml)” value ([2]; NAG 0.50 mg/ml, 24 hours) was 0.22 ± 0.039 mg/mL and the “Expr. prot. from NAG (mg/ml)” value ([2]; NAG 0.50 mg/ml, 48 hours) was 0.40 ± 0.12 mg/mL. The “Expr. prot. from NAG % incr. over baseline” value ([2]; NAG 0.50 mg/ml, 72 hours) was “+10.3%”, the “Expr. prot. from NAG (mg/ml)” value ([2]; NAG 0.50 mg/ml, 72 hours) was 0.64 ± 0.12 mg/mL and the “Expr. prot. from NAG % incr. over baseline” value ([2]; NAG 1.00 mg/ml, 24 hours) was “+44.9%”. For the same molecule, the “Expr. prot. from NAG (mg/ml)” value ([2]; NAG 1.00 mg/ml, 24 hours) was 0.36 ± 0.047 mg/mL, the “Expr. prot. from NAG % incr. over baseline” value ([2]; NAG 1.00 mg/ml, 48 hours) was “+41.2%” and the “Expr. prot. from NAG (mg/ml)” value ([2]; NAG 1.00 mg/ml, 48 hours) was 0.48 ± 0.11 mg/mL. The “Expr. prot. from NAG % incr. over baseline” value ([2]; NAG 1.00 mg/ml, 72 hours) was “+20.7%”, the “Expr. prot. from NAG (mg/ml)” value ([2]; NAG 1.00 mg/ml, 72 hours) was 0.70 ± 0.08 mg/mL and the “Expr. prot. from NAG (mg/ml)” value ([2]; NAG 2.00 mg/ml, 24 hours) was 0.38 ± 0.050 mg/mL. The “Expr. prot. from NAG % incr. over baseline” value ([2]; NAG 2.00 mg/ml, 48 hours) was “+38.2%”, the “Expr. prot. from NAG (mg/ml)” value ([2]; NAG 2.00 mg/ml, 48 hours) was 0.47 ± 0.12 mg/mL and the “Expr. prot. from NAG % incr. over baseline” value ([2]; NAG 2.00 mg/ml, 72 hours) was “+43.1%”. The “Expr. prot. from NAG (mg/ml)” value ([2]; NAG 2.00 mg/ml, 72 hours) was 0.83 ± 0.070 mg/mL, the “increase of HA” value [3] was “very high, significant and dose dependent increase” and the “increase of pro-collagen 1” value [3] was “very high, significant and dose dependent increase”.
